Experiments:
[1] = tested on: transitory focal cerebral ischaemia; assay: Anti-ischaemic activity: transitory focal cerebral ischaemia by intraluminal occlusion; type: in vivo; settings: adult male Wistar rat; 1 mg/kg intravenously 3 minutes before occlusion; occlusion 1 hour, reperfusion 23 hours
Protocol: The model used is a model of transitory focal cerebral ischaemia produced by intraluminal occlusion which mimics an embolic cerebral vascular accident in humans. The location of the infarction is cortical and subcortical (R. Bordet et al., J Cereb Blood Flow Metab. 20, 2000, 1190-1196 and 1999, 19, 1309-1345).
The model consists of a unilateral occlusion of the […] for 1 hour followed by reperfusion for 23 hours in an adult male Wistar rat. The aim of this experiment is to study the anti-ischaemic effect of the compounds of the invention.
The animals are anaesthetised for surgery with 300 mg/kg of chloral hydrate. For the duration of the surgery, their temperature is monitored and maintained at 37° C. using a temperature-controlled heating blanket.
The principal procedure is to stop the circulation of blood to the right middle cerebral artery (MCA) by intraluminal occlusion of the ostium. After 60 minutes, the occlusion is removed and the animals are replaced in their cage. After 24 hours the animals are sacrificed under anaesthetic. […]
The uncorrected infarcted zones and the total hemispheric zones are calculated separately for each section using an image analysis program. The corrected total volume of infarction is calculated in order to compensate for the effect of cerebral cedema. […]

[2] = tested on: primary cultures of cardiomyocytes; assay: Anti-apoptotic effect in primary cultures of cardiomyocytes (H2O2-induced apoptosis); type: cell-based; settings: newborn rat cardiomyocytes; H2O2 0.075 mmol/liter for 30 minutes, then 24 hours culture
Protocol: An in vitro study into an anti-apoptotic effect in primary cultures of cardiomyocytes was carried out by inducing apoptosis by adding hydrogen peroxide (H2O2). The free radicals produced induce apoptosis. This is similar to what is observed in ischaemia-reperfusion (R. Von Harsdorf, Circulation 99, 2934-2941). The cardiomyocytes are isolated from newborn rat hearts and are spread out at a density of 35 000 cells/cm^2. The process of apoptosis is induced by the addition of H2O2 (0.075 mmol/liter) for 30 minutes. The cardiomyocytes are then replaced in the culture medium for 24 hours. The apoptotic cells are visualised by various techniques, for example by the fragmentation of the genomic DNA that occurs in the process of apoptosis. […] The characteristic fragments of 180 bp of genomic DNA are detected by electrophoresis on agarose gel. The migration of phosphatidylserine (PS) from the inside of the membrane of the […] to the outside (externalisation) is an early indicator of apoptosis. This can be visualised by fluorescent labelling using annexin-V-FITC (fluorescein isothiocyanate) and quantified by comparison with the total number of cells.

[3] = tested on: mouse model of neurodegeneration affecting both the cortical neurones and the subjacent white matter; assay: Neuroprotection in the cortex and white matter: excitotoxic lesions by intracerebral ibotenate or S-bromo-willardiine; type: in vivo; settings: for Cortical lesions: lesion, μm / White matter lesions: lesion, μm: 10 mg/kg i.p. immediately after excitotoxic assault at P5, sacrifice at P10, averages; for size of the lesions in the white matter and in the cortex (neuroprotective effect): newborn Swiss mouse, test compound intraperitoneally after excitotoxic assault
Protocol: The model used is a mouse model of neurodegeneration affecting both the cortical neurones and the subjacent white matter (S. L. Tahraoui et al., Brain Pathol., 2001, 11, 56-71). This model is based on an intracerebral injection of S-bromo-willardiine, a glutamatergic agonist that acts on AMPA-kainate receptors, or of ibotenate, an agonist of NMDA-type receptors, in the newborn mouse.
All the injections are carried out in the morning between 10.00 and 13.00 hours. The animals are anaesthetised in advance and kept under a heating lamp during the handling period. Each experimental group comprises from 5 to 12 Swiss mice of both sexes, from at least 2 different litters. On the 5th day of life (P5), 10 μg of ibotenate or 15 μg of S-bromo-willardiine are injected intracerebrally using a 25G gauge needle mounted on a 50 μl syringe, fixed to a calibrated device that delivers a bolus of 1 μl at each depression. The needle is inserted 2 mm below the cutaneous level, in the fronto-parietal region of the right hemisphere (2 mm in front of the lambdoid suture and 2 mm outside the median line). Two boluses of 1 μl (1 μl into the periventricular white matter and 1 μl into the cortex) are administered. An interval of 30 seconds, during which the needle remains in position, separates each bolus in order to allow diffusion of the product. Immediately after this excitotoxic assault, the test compound (3, 10 or 30 mg/kg) or the carrier is administered intraperitoneally (injected volume=5 μl). The animals are sacrificed by decapitation 5 days later (P10) and their brains are immediately removed and fixed in formol before being enclosed in paraffin. Series of 15 μm coronal sections are prepared for all the brains and stained with cresyl violet, which makes it possible to determine in a precise and reproducible manner the anterio-posterior axis of the histological lesions in both the cortex and the white matter. The sizes of the histological lesions are determined by two independent observers having no knowledge of the experimental groups. The results are expressed in the form of averages.

[4] = tested on: lesions induced by kainic acid in the CA1 and CA3 regions of the hippocampus; assay: Neuroprotection in the CA1 and CA3 regions of the hippocampus (kainic acid lesions); type: in vivo, rat; settings: single injection 20 mg/kg intraperitoneal 3 minutes before kainic acid 12 mg/kg i.p.; sacrifice 7 days later
Protocol: The histopathological changes observed which are associated with administration of kainic acid differ from cerebral ischaemia caused by lesions that develop first in the CA1 to CA3 regions of the hippocampus (C. Montecot et al., Neuroscience 84, 791-800). The aim is to study the protective effect against lesions induced essentially in the CA3 region of the hippocampus while there is no reduction in the circulation of blood.
Kainic acid is administered intraperitoneally to a conscious rat in a dose of 12 mg/kg. The animal is then observed for a period of about 2 hours during which, after a latent period, epileptiform convulsions occur. At the end of 2 hours, the convulsions are stopped by administration of 10 mg/kg of diazepam. The animals are sacrificed 7 days later, their brains are isolated and 8 transverse sections 15 μm thick, spaced 150 μm apart, are prepared. These are analysed by contrast microscopy by two independent observers having no knowledge of the experimental groups. A rating of 0 to 3 is given according to the severity of the neuronal lesions. The ratings for each hemisphere are added together to obtain a lesion rating.
The product is administered in a dose of 20 mg/kg by the intraperitoneal route 3 minutes before administration of the kainic acid.

| Compound | size of the infarction of the cortex and striatum [1] | cell survival [2] | percentage of cells undergoing apoptosis [2] | Cortical lesions: lesion, μm [3] | White matter lesions: lesion, μm [3] | size of the lesions in the white matter and in the cortex (neuroprotective effect) [3] | protection of neurones of the CA1 and CA3 regions of the hippocampus against kainic acid lesions [4] |
| --- | --- | --- | --- | --- | --- | --- | --- |
| COc1ccc(CN2CCN(Cc3ccccc3)CC2)c(OCCCCCCC(=O)O)c1OC.Cl.Cl [Example 2, 7-{6-[(4-Benzyl-1-piperazinyl)methyl]-2,3-dimethoxyphenoxy}-heptanoic acid dihydrochloride] | reduced the size of the infarction of the cortex and striatum significantly | increase | decrease | 200 μm | 146.7 μm | reduced the size of the lesions in the white matter and in the cortex | protects the neurones of the CA1 and CA3 regions of the hippocampus against lesions induced by kainic acid |
| COc1ccc(CN2CCNCC2)c(OC)c1OC [TMZ, Trimetazidine, reference compound] | – | – | – | 800 μm | 320 μm | very low neuroprotective effect | – |

From patent US6686360B2, “N-benzylpiperazine compounds” (priority 2001, dated 2004)
